Data as given in patent US20220144812A1, “QUINOLINE DERIVATIVES AND THEIR USE FOR THE TREATMENT OF CANCER” (Epizyme, Inc., priority 2019, published 2022).
Where two headings read alike, the source gives them in different places.

Assays:
[1] = tested on: H3K18Ac in HB-CLS-2 cells; assay: H3K18AC in-cell western (ICW) assay; assay type: cell-based; details: read-out: CREBBP ICW IC50
Outline: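 HB-CLS-2 cells seeded 16–24 hours before 2 hr compound treatment at 37° C, 5% CO2, then methanol-fixed. H3K18Ac detected with rabbit monoclonal primary (overnight, 4° C) and 800CW anti-rabbit secondary; DRAQ5 stained DNA. Plates imaged at 700 and 800 nm for integrated intensity; IC50 in μM.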

[2] = tested on: 647V cells; assay: High throughput proliferation (HTP) assay; assay type: cell-based; details: read-out: CREBBP HTP IC50
Outline: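 Exponentially growing 647V cells in DMEM with 15% FBS were treated in triplicate with increasing compound concentrations at 37° C, 5% CO2. Viable cell number was read by CellTiter-Glo luminescence on day 7; IC50 in micromolar.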

[3] = target: T1, CREBBP (1084-1701) (Homo sapiens, UniProt Q92793); assay: Biochemical assay for CREBBP (1084-1701), SAMDI; details: read-out: CREBBP Biochemistry IC50
T1 construct: measured in the following biochemical assay using CREBBP (1084-1701); purchased
Outline: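 CREBBP (1084-1701) preincubated with compound 30 min at RT, then substrate mix (biotin-H3 11-25 K14R/K23R peptide, acetyl-CoA) added for 30 min at RT. Reaction stopped with formic acid, neutralised with sodium bicarbonate. Peptide acetylation read by SAMDI mass spectrometry to derive IC50.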

[4] = target: T2, EP300 (P300(1048-1664)) (Homo sapiens, UniProt Q09472); assay: Biochemical assay for EP300, SAMDI; details: read-out: EP300 Biochemistry IC50
T2 construct: P300(1048-1664)
T2 sequence (Q09472 1048-1664): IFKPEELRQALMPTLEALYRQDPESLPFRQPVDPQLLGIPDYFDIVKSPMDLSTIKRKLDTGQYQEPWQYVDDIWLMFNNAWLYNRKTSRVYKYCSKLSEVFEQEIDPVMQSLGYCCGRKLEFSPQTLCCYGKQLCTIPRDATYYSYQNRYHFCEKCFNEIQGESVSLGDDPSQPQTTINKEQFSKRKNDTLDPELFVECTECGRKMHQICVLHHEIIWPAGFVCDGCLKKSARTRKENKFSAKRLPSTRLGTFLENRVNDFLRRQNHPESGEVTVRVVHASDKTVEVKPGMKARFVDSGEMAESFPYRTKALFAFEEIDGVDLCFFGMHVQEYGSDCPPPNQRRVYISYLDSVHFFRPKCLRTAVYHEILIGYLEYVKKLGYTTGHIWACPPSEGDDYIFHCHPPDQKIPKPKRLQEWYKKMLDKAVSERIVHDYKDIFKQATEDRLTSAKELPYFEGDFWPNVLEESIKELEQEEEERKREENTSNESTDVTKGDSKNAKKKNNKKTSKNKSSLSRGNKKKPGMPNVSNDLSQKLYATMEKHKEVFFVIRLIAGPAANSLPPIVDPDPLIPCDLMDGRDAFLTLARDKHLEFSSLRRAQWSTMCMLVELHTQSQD
Excerpt: The following example describes materials and methods relating to a biochemical assay for EP300. IC50 values (micromolar (μM)) are summarized in Table 1, Table 2, and Table 3 under the column labeled: “EP300 Biochemistry IC50 (micromolar).”

[5] = H3K18Ac in-cell western, HB-CLS-2 cells
[6] = Homo sapiens, 647-V, high throughput proliferation, 647V cells
[7] = Homo sapiens, 647-V, high throughput proliferation
[8] = 2 h, H3K18Ac in HB-CLS-2 cells, 2 hrs compound incubation
[9] = Homo sapiens, 647-V, 168 h, 647V cells, day 7, CellTiter-Glo
[10] = Peptide #233, Acetyl-CoA, SAMDI mass spectrometry
[11] = P300(1048-1664), Peptide #233, Ac-CoA, SAMDI mass spectrometry

T1 sequence (Q92793 1084-1701): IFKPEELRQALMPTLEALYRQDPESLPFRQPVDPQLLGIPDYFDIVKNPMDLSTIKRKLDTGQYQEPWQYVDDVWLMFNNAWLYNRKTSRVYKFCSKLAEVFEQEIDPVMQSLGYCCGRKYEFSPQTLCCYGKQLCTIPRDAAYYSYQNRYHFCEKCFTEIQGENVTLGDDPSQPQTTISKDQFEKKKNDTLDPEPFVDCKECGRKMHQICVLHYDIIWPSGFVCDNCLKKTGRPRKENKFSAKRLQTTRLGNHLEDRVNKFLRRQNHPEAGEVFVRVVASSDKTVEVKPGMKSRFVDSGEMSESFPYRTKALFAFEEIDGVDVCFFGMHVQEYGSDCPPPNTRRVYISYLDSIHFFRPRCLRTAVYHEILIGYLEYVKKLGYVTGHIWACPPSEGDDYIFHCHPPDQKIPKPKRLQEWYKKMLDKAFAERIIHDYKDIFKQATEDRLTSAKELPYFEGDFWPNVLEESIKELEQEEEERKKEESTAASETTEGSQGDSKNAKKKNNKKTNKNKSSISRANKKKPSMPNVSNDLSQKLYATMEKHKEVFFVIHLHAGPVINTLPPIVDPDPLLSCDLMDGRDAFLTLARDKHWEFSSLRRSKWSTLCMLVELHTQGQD

SMILES | IC50 [1, 5] | IC50 ([3]; SAMDI) | IC50 ([4]; EP300, SAMDI) | IC50 ([1]; H3K18Ac in-cell western) | IC50 [1, 8] | IC50 [3, 10] | IC50 [4, 11] | IC50 [2, 6] | IC50 [2, 7] | IC50 [2, 9] | IC50 ([2]; high throughput proliferation)
CCn1ncc(CN(C)C(=O)c2cc(-c3ccc(NC)c(C)n3)nc3ccc(Cl)cc23)c1C [Compound 404] | 0.17 µM | 0.0025 µM | 0.023 µM |  |  |  |  | 0.12 µM |  |  | 
CCn1ncc(CN(C)C(=O)c2nc(-c3ccc(OCC(O)CNC)c(Cl)c3)nc3ccc(Cl)cc23)c1C (stereo not shown) [Compound 25] |  | 0.027 µM | 0.033 µM | 0.21 µM |  |  |  |  | 0.076 µM |  | 
CCn1ncc(CN(C)C(=O)c2nc(-c3cc(-c4ncc[nH]4)n(C)n3)nc3ccc(Cl)cc23)c1C [Compound 495] |  | 0.0293 µM | 0.0163 µM | 0.153 µM |  |  |  |  | 0.14 µM |  | 
CCn1ncc(CN(C)C(=O)c2nc(-c3cc(C(=O)Nc4ccccc4)n(C)n3)nc3ccc(Cl)cc23)c1C [Compound 396] | 20 µM | 50 µM | 35 µM |  |  |  |  | 8.4 µM |  |  | 
CCn1ncc(CN(C)C(=O)c2cc(-c3ccc(NC4COC4)c(C)n3)nc3ccc(Cl)cc23)c1C [Compound 454] |  | 0.0227 µM | 0.0055 µM | 0.141 µM |  |  |  |  | 0.133 µM |  | 
CCc1nc(-c2cc(C(=O)N(C)Cc3cnc(CC)n3C)c3cc(COC)ccc3n2)ccc1NCCNC [Compound 486] |  | 0.0598 µM | 0.0301 µM | 0.315 µM |  |  |  |  | 0.0895 µM |  | 
CCn1ncc(CN(C)C(=O)c2nc(-c3cnc(CO)n3C)nc3ccc(Cl)cc23)c1C [Compound 208] | 20 µM | 50 µM | 36 µM |  |  |  |  | 20 µM |  |  | 
CCn1ncc(CN(C)C(=O)c2nc(-n3nc(N)c4ccc(C)cc43)nc3ccc(Cl)cc23)c1C [Compound 419] | 5.8 µM | 10 µM | 4.4 µM |  |  |  |  | 0.41 µM |  |  | 
CCn1ncc(CN(C)C(=O)c2cc(-c3ccc(OCCO)c(C)n3)nc3ccc(Cl)cc23)c1C [Compound 45] |  | 0.074 µM | 0.075 µM | 0.39 µM |  |  |  |  | 0.38 µM |  | 
CCn1ncc(CN(C)C(=O)c2cc(-c3cc(C(=O)NC)n(C)n3)nc3ccc(Cl)cc23)c1C [Compound 447] |  | 0.0121 µM | 0.002 µM | 0.0514 µM |  |  |  |  | 0.0688 µM |  | 
CCn1ncc(CN(C)C(=O)c2nc(-c3cn[nH]c3)nc3ccc(Cl)cc23)c1C [Compound 125] |  | 6.3 µM | 3.5 µM | 4 µM |  |  |  |  | 4.1 µM |  | 
CCn1ncc(CN(C)C(=O)c2nc(-c3ccc4nc(C)n(C(=O)OC(C)(C)C)c4c3)nc3ccc(Cl)cc23)c1C [Compound 104] |  | 9.2 µM | 13 µM | 2.2 µM |  |  |  |  | 0.23 µM |  | 
CCn1ncc(CN(C)C(=O)c2cc(-c3csc(CNC)n3)nc3ccc(Cl)cc23)c1C [Compound 138] |  | 12 µM | 5.2 µM | 5.9 µM |  |  |  |  |  |  | 8.3 µM
CCn1ncc(CN(C)C(=O)c2nc(-c3ccc(OCCN(C)C(=O)OC(C)(C)C)c(Cl)c3)nc3ccc(Cl)cc23)c1C [Compound 151] |  | 2.2 µM | 2.8 µM | 8.8 µM |  |  |  |  | 3.2 µM |  | 
CCn1ncc(CN(C)C(=O)c2cc(-c3ccc(NCCNC)c(C)n3)nc3ccc(Cl)cc23)c1C [Compound 388] | 0.23 µM | 0.034 µM | 0.011 µM |  |  |  |  | 0.066 µM |  |  | 
CCn1ncc(CN(C)C(=O)c2cc(-c3ccc(N(C)CCN)nn3)nc3ccc(Cl)cc23)c1C [Compound 505] |  | 4.52 µM | 3.28 µM | 2.33 µM |  |  |  |  | 5.96 µM |  | 
CCn1ncc(CN(C)C(=O)c2cc(-c3cc4n[nH]cc4cn3)nc3ccc(COC)cc23)c1C [Compound 506] |  | 0.0648 µM | 0.0076 µM | 0.185 µM |  |  |  |  | 0.567 µM |  | 
CCn1ncc(CN(C)C(=O)c2nc(-c3ccc(CN4CCNCC4)c(OC)c3)nc3ccc(Cl)cc23)c1C [Compound 139] |  | 6.8 µM | 7.4 µM | 5.9 µM |  |  |  |  |  |  | 7.5 µM
CCn1ncc(CN(C)C(=O)c2nc(-c3ccc(OCCCNC(=O)OC(C)(C)C)c(C)c3)nc3ccc(Cl)cc23)c1C [Compound 147] |  | 0.47 µM | 7.9 µM | 7 µM |  |  |  |  |  |  | 3.1 µM
CCn1ncc(CN(C)C(=O)c2cc(-c3ccc(NCCNC)c(C)n3)nc3cc(COC)ccc23)c1C [Compound 492] |  | 7.24 µM | 5.99 µM | 2.4 µM |  |  |  |  | 1.67 µM |  | 
CCn1ncc(CN(C)C(=O)c2nc(-c3ccc(NCCNC)cn3)nc3ccc(Cl)cc23)c1C [Compound 112] |  | 1.3 µM | 0.73 µM | 2.7 µM |  |  |  |  | 2.1 µM |  | 
CCn1ncc(CN(C)C(=O)c2cc(-c3cc(CNC)cc(C)n3)nc3ccc(Cl)cc23)c1C [Compound 473] |  | 0.322 µM | 0.392 µM | 0.73 µM |  |  |  |  | 0.38 µM |  | 
CCn1ncc(CN(C)C(=O)c2nc(-c3ccc(OCCN4CCCC4)cc3Cl)nc3ccc(Cl)cc23)c1C [Compound 40] |  | 0.11 µM | 0.13 µM | 0.35 µM |  |  |  |  | 0.22 µM |  | 

Now from value to compound, other results behind:

IC50 [1, 5] | IC50 ([3]; SAMDI) | IC50 ([4]; EP300, SAMDI) | IC50 ([1]; H3K18Ac in-cell western) | IC50 [1, 8] | IC50 [3, 10] | IC50 [4, 11] | SMILES | IC50 [2, 6] | IC50 [2, 7] | IC50 [2, 9] | IC50 ([2]; high throughput proliferation)
 |  |  |  | 0.0421 µM | 0.0032 µM | 0.0046 µM | CCn1ncc(CN(C)C(=O)c2nc(-c3cnc4n[nH]c(NC)c4c3)nc3ccc(Cl)cc23)c1C [Compound 632] |  |  | 0.105 µM | 
 | 0.0479 µM | 0.0169 µM | 0.149 µM |  |  |  | CCc1ncc(CN(C)C(=O)c2nc(-c3cc(C)nc(NCCNC)c3)nc3ccc(Cl)cc23)n1C [Compound 574] |  | 0.0613 µM |  | 
 | 0.0705 µM | 0.0494 µM | 0.166 µM |  |  |  | CCn1ncc(CN(C)C(=O)c2nc(-c3cc4c(N)n(CCNC)nc4cc3C)nc3ccc(Cl)cc23)c1C [Compound 515] |  | 0.0785 µM |  | 
 | 3.63 µM | 1.73 µM | 3.3 µM |  |  |  | CCn1ncc(CN(C)C(=O)c2cc(-c3ccc(NCC4CN(C)CCO4)c(C)n3)nc3ccc(Cl)cc23)c1C (stereo not shown) [Compound 628] |  | 0.997 µM |  | 
 | 0.0192 µM | 0.0113 µM | 0.114 µM |  |  |  | CCn1ncc(CN(C)C(=O)c2cc(-c3ccc(NCCS(C)(=O)=O)c(C)n3)nc3ccc(Cl)cc23)c1C [Compound 625] |  | 0.163 µM |  | 
 | 0.034 µM | 0.0142 µM | 0.0297 µM |  |  |  | CCc1ncc(CN(C)C(=O)c2nc(-c3cc(C)nc(NCCN(C)C)c3)nc3ccc(Cl)cc23)n1C [Compound 583] |  | 0.0108 µM |  | 
 |  |  |  | 20 µM | 50 µM | 50 µM | CCn1ncc(C(N(C)C(=O)c2cc(-c3ccc(NCCN(C)C)c(C)n3)nc3ccc(Cl)cc23)C(F)(F)F)c1C (stereo not shown) [Compound 639] |  |  | 2.17 µM | 
 | 0.0152 µM | 0.004 µM | 0.104 µM |  |  |  | CCc1ncc(CN(C)C(=O)c2cc(-c3cc(C(=O)NC)n(C)n3)nc3ccc(Cl)cc23)n1C [Compound 512] |  | 0.111 µM |  | 
 | 0.0511 µM | 0.0338 µM | 0.153 µM |  |  |  | CCc1ncc(CN(C)C(=O)c2cc(-c3ccc(NCCNC)c(F)n3)nc3ccc(Cl)cc23)n1C [Compound 565] |  | 0.193 µM |  | 
 | 26 µM | 16.6 µM | 16.6 µM |  |  |  | CCn1ncc(CN(C)C(=O)c2nc(-c3nc4c[nH]nc4cc3C)nc3ccc(Cl)cc23)c1C [Compound 522] |  | 8.06 µM |  | 
 | 0.0361 µM | 0.0121 µM | 0.159 µM |  |  |  | CCc1ncc(CN(C)C(=O)c2cc(-c3ccc(NC4CCOCC4)c(C)n3)nc3ccc(Cl)cc23)n1C [Compound 517] |  | 0.107 µM |  | 
